Reference: the NIST ThermoML archive (doi:10.1021/acs.jced.8b01078)

Conditions: Liquid, Closed cell (Static) method

O [water]
Conditions	vapor or sublimation pressure [kPa]
313.16 K	7.46
323.16 K	12.54
333.16 K	20.24
343.16 K	31.54
353.16 K	48.25
363.16 K	70.49
373.16 K	101.98
